Assay results from US20030224978A1, “Compounds and methods for modulating apoptosis” (McGill University, priority 1996, published 2003).
“Also recorded” adds a separate entry of the source.

Columns and labels:
Assay type in all cases: cell-based
[1] = molecular target: T1, N-CAM (Homo sapiens, UniProt P13591); assay: Neurite outgrowth of mouse cerebellar neurons on 3T3 cells expressing N-CAM (Example 2); settings: 500 μg/mL
T1 construct: expressed in transfected cells; host or cells: 3T3 cells

[2] = molecular target: L1 (Homo sapiens, UniProt P32004); assay: Neurite outgrowth of mouse cerebellar neurons on 3T3 cells expressing L1 (Example 2); set-up: expressed in transfected cells; host or cells: 3T3 cells; settings: 500 μg/mL
[3] = system: SKOV3 human ovarian cancer cells; assay: Induction of apoptosis / cell death in SKOV3 cells, in situ cell death detection kit; settings: 0.5 or 0.25 mg/mL, 48 hours
Description: Direct assays of induction of apoptosis may be performed using any standard technique. For example, cadherin-expressing cells (e.g., SKOV3 human ovarian cancer cells) may be plated onto poly-L-lysine coated glass slides and cultured with 500 μg/mL of modulating agent for 24-48 hours. Cells may then be fixed and assayed for cell death using any of a variety of well known methods. For example, an in situ cell death detection kit may be purchased from Boehringer Mannheim (Laval, Quebec) and used according to the manufacturer's instructions.
SKOV3 human ovarian cancer cells cultured in the presence of either N-Ac-CHAVC-NH2 (SEQ ID NO:10) or a control peptide (N-Ac-CHGVC-NH2; SEQ ID NO:20) in MEM with 10% FBS were plated onto poly-L-lysine coated glass slides. The cells were cultured for 24 or 48 hours and fixed with 4% paraformaldehyde for 30 minutes at room temperature. The slides were then washed three times with PBS and assessed for cell death. Cells were treated with 0.5 or 0.25 mg/mL of N-Ac-CHAVC-NH2 (SEQ ID NO:10) or the control N-Ac-CHGVC-NH2 (SEQ ID NO:20), as indicated. Cell death was measured as described by Gavrieli et al, J. Cell. Biol. 119:493-501, 1992 and using the In situ cell death detection kit (Boehringer Mannheim; Laval, Quebec).

[4] = system: 3T3 cells not expressing N-cadherin, N-CAM, or L1 (control cells); assay: Neurite outgrowth of mouse cerebellar neurons on control 3T3 cells (Example 2); settings: 500 μg/ml
Description: Neurons were cultured on monolayers of 3T3 cells transfected with cDNA encoding N-cadherin essentially as described by Doherty and Walsh, Curr. Op. Neurobiol. 4:49-55, 1994; Williams et al., Neuron 13:583-594, 1994; Hall et al., Cell Adhesion and Commun. 3:441-450, 1996; Doherty and Walsh, Mol. Cell. Neurosci. 8:99-111, 1994; Safell et al., Neuron 18:231-242, 1997. Briefly, monolayers of control 3T3 fibroblasts and 3T3 fibroblasts that express N-cadherin were established by overnight culture of 80,000 cells in individual wells of an 8-chamber well tissue culture slide. 3000 cerebellar neurons isolated from post-natal day 3 mouse brains were cultured for 18 hours on the various monolayers in control media (SATO/2%FCS), or media supplemented with various concentrations of the cyclic peptide N-Ac-CHAVC-NH2 (SEQ ID NO:10) or a control peptide without the HAV sequence (N-Ac-CHGVC-NH2 (SEQ ID NO:20)). The cultures were then fixed and stained for GAP43 which specifically binds to the neurons and their neurites. The length of the longest neurite on each GAP43 positive neuron was then measured by computer assisted morphometry.

T1 sequence (P13591 20-858, species assumed): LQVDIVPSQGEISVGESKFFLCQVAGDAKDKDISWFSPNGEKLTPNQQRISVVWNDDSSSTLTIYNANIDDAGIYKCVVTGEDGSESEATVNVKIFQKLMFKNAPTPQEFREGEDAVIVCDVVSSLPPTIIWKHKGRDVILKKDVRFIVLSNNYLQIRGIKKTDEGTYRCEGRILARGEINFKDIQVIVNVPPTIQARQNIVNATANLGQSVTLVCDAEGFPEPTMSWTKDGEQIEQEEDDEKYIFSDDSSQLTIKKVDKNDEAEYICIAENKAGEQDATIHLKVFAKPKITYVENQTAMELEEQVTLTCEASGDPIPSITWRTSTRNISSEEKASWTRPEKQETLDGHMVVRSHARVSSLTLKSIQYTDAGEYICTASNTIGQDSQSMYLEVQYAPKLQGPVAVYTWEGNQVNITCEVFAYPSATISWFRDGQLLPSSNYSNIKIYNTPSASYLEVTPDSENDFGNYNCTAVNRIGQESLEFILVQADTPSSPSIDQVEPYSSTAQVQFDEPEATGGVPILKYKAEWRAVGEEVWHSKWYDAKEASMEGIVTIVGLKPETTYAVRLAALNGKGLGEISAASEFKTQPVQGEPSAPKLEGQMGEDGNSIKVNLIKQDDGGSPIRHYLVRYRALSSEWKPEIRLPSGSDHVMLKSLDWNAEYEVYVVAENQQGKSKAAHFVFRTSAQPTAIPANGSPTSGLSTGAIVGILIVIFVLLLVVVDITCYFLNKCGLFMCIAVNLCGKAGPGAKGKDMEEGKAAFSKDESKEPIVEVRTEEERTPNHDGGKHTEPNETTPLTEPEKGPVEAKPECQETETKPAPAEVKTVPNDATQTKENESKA
L1, sequence (P32004 20-1257): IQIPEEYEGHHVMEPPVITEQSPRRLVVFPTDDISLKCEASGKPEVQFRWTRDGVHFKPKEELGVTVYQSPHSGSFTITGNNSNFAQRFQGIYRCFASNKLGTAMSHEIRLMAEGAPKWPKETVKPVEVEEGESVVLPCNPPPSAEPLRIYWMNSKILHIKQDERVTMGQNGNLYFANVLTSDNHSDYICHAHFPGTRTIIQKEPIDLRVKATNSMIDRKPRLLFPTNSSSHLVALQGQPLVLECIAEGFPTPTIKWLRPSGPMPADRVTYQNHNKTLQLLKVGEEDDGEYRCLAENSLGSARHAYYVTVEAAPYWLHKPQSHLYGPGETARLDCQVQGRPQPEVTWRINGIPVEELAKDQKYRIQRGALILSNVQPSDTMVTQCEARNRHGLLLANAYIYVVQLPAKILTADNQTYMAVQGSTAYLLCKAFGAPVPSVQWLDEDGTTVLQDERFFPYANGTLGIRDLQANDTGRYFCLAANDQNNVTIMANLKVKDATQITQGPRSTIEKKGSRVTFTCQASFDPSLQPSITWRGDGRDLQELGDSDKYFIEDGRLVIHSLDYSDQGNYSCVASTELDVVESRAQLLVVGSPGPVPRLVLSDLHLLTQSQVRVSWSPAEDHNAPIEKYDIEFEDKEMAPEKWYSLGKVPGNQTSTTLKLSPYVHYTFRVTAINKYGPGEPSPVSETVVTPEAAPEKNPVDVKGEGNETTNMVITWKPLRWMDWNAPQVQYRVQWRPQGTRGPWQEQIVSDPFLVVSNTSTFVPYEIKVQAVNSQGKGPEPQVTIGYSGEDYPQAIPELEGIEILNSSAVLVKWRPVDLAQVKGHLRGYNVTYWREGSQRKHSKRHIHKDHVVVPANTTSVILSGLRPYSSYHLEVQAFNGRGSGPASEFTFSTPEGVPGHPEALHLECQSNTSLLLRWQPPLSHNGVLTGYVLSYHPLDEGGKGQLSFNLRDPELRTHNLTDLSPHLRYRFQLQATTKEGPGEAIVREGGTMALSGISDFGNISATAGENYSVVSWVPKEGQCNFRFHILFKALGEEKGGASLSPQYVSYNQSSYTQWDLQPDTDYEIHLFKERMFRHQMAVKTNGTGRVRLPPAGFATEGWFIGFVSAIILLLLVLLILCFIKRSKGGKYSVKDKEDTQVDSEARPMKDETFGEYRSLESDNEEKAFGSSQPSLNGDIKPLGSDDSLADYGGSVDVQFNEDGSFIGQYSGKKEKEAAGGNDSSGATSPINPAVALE

- effect on neurite outgrowth on 3T3 cells expressing N-CAM [1]: did not inhibit neurite outgrowth
- effect on neurite outgrowth on 3T3 cells expressing L1 [2]: did not inhibit neurite outgrowth
SMILES: CC(=O)N[C@H]1CSSC[C@@H](C(N)=O)NC(=O)[C@H](C(C)C)NC(=O)[C@H](C)NC(=O)[C@H](Cc2c[nH]cn2)NC1=O [N-Ac-CHAVC-NH2, N-Ac-Cys-His-Ala-Val-Cys-NH2]
- cell death of SKOV3 cells [3]: the cells are dead; also recorded: cell death
- effect on neurite outgrowth on control 3T3 cells [4]: did not inhibit neurite outgrowth
